Reference: patent publication US9556205B2, “Fungicide N-[(trisubstitutedsilyl)methyl]-carboxamide derivatives” (BAYER INTELLECTUAL PROPERTY GMBH, priority 2010, dated 2017)
Several values for one entry are separate records, joined by “and”; a condition that tells them apart may be missing. Identical values can stand only once.

What was measured:
[1] = log P by HPLC on reversed-phase column (C18), EEC Directive 79/831 Annex V.A8; format: physicochemical; settings: 40° C., 0.1% aqueous formic acid and acetonitrile, linear gradient 10% to 90% acetonitrile
Method: In table 1, the log P values were determined in accordance with EEC Directive 79/831 Annex V.A8 by HPLC (High Performance Liquid Chromatography) on a reversed-phase column (C18), using the method described below:
Temperature: 40° C.; Mobile phases: 0.1% aqueous formic acid and acetonitrile; linear gradient from 10% acetonitrile to 90% acetonitrile.
Calibration was carried out using unbranched alkan-2-ones (comprising 3 to 16 carbon atoms) with known log P values (determination of the log P values by the retention times using linear interpolation between two successive alkanones). lambda-max-values were determined using UV-spectra from 200 nm to 400 nm and the peak values of the chromatographic signals.

Pyrenophora teres = experiment: In vivo preventive test on Pyrenophora teres (barley), Example F; settings: 500 ppm of active ingredient, evaluated 7-9 days after inoculation
Method: (§1) Solvent: 49 parts by weight of N,N-dimethylformamide Emulsifier: 1 part by weight of alkylaryl polyglycol ether To produce a suitable preparation of active compound, 1 part by weight of active compound is mixed with the stated amounts of solvent and emulsifier, and the concentrate is diluted with water to the desired concentration. To test for preventive activity, young plants are sprayed with the preparation of active compound at the stated rate of application. One day after this treatment, the plants are inoculated with an aqueous spore suspension of Pyrenophora teres. […] Then the plants are placed in a greenhouse at a temperature of approximately 20° C. and a relative atmospheric humidity of approximately 80%.

Aspergillus parasiticus = format: cell-based; settings: 7 days at 20° C., OD620nm
Septoria tritici = experiment: In vivo preventive test on Septoria tritici (wheat); settings: 500 ppm of active ingredient, evaluated 21 days after inoculation
Method: Solvent: 49 parts by weight of N,N-dimethylacetamide Emulsifier: 1 part by weight of alkylaryl polyglycol ether To produce a suitable preparation of active compound, 1 part by weight of active compound or active compound combination is mixed with the stated amounts of solvent and emulsifier, and the concentrate is diluted with water to the desired concentration. To test for preventive activity, young plants are sprayed with the preparation of active compound or active compound combination at the stated rate of application. After the spray coating has dried on, the plants are sprayed with a spore suspension of Septoria tritici. […] The plants are placed in a greenhouse at a temperature of approximately 15° C. and a relative atmospheric humidity of approximately 80%.

Alternaria solani = experiment: In vivo preventive test on Alternaria solani (tomato); settings: 500 ppm of active ingredient, evaluated 7 days after inoculation
Method: as §1, with “Alkylarylpolyglycolether” for “alkylaryl polyglycol ether”, “Alternaria solani.” for “Pyrenophora teres.”, “an incubation cabinet” for “a greenhouse”, “at” for “at a temperature of”, “96%.” for “approximately 80%.”

[2] = tested on: Aflatoxins production by Aspergillus parasiticus; format: cell-based
Leptosphaeria nodorum = experiment: In vivo preventive test on Leptosphaeria nodorum (wheat); settings: 500 ppm of active ingredient, evaluated 8 days after inoculation
Method: Solvent: 49 parts by weight of N,N-dimethylacetamide Emulsifier: 1 part by weight of alkylaryl polyglycol ether To produce a suitable preparation of active compound, 1 part by weight of active compound or the compound combination is mixed with the stated amounts of solvent and emulsifier, and the concentrate is diluted with water to the desired concentration. To test for protective activity, young plants are sprayed with a preparation of active compound or active compound combination at the stated rate of application. After the spray coating has dried on, the plants are sprayed with a spore suspension of Leptosphaeria nodorum. […] The plants are placed in a greenhouse at a temperature of approximately 15° C. and a relative atmospheric humidity of approximately 80%.

Venturia inaequalis = experiment: In vivo preventive test on Venturia inaequalis (apple scab); settings: 100 ppm of active ingredient, evaluated 10 days after inoculation
Method: Solvent: 24.5 parts by weight of acetone • 24.5 parts by weight of N,N-dimethylacetamide Emulsifier: 1 part by weight of alkylaryl polyglycol ether To produce a suitable preparation of active compound, 1 part by weight of active compound is mixed with the stated amounts of solvent and emulsifier, and the concentrate is diluted with water to the desired concentration. To test for protective activity, young plants are sprayed with the preparation of active compound at the stated rate of application. […] The plants are then placed in a greenhouse at approximately 21° C. and a relative atmospheric humidity of approximately 90%.

Botrytis cinerea = experiment: In vivo preventive test on Botrytis cinerea (beans); settings: 500 ppm of active ingredient, lesion size 2 days after inoculation
Method: Solvent: 24.5 parts by weight of acetone
• 24.5 parts by weight of N,N-dimethylacetamide Emulsifier: 1 part by weight of alkylaryl polyglycol ether
To produce a suitable preparation of active compound, 1 part by weight of active compound is mixed with the stated amounts of solvent and emulsifier, and the concentrate is diluted with water to the desired concentration.
To test for protective activity, young plants are sprayed with the preparation of active compound. After the spray coating has dried on, 2 small pieces of agar covered with growth of Botrytis cinerea are placed on each leaf. The inoculated plants are placed in a darkened chamber at 20° C. and a relative atmospheric humidity of 100%.
2 days after the inoculation, the size of the lesions on the leaves is evaluated. 0% means an efficacy which corresponds to that of the control, while an efficacy of 100% means that no disease is observed. Under these conditions, excellent (at least 95%) to total protection is observed at a dose of 500 ppm of active ingredient with the following compounds from table C: […]

Row | SMILES | logP [1] | Efficacy (Pyrenophora teres) [%] | % Inhibition of fungal growth at 50 μM (Aspergillus parasiticus) [%] | Efficacy (Septoria tritici) [%] | Efficacy (Alternaria solani) [%] | % Inhibition of Aflatoxin at 50 μM [2] [%] | Efficacy (Leptosphaeria nodorum) | Efficacy (Venturia inaequalis) [%] | Efficacy (Botrytis cinerea) [%]
1 | CN(C[Si](C)(C)c1ccccc1)C(=O)c1c(C(F)F)nn(C)c1F [Example 4] | 3.23 | 100 | 100 | 100 | 100 | 100 | 93% | – | –
2 | CCc1nn(C)c(F)c1C(=S)N(C[Si](C)(C)c1ccccc1)C1CC1 [Example 9] | 4.41 | 100 | – | 93 | 100 | – | 100% | – | –
3 | Cc1nn(C)c(F)c1C(=S)N(C[Si](C)(C)c1ccccc1)C1CC1 [Example 10] | 3.99 | 100 | – | 100 | 100 | – | 100% | – | –
4 | Cn1nc(C(F)F)c(C(=O)NC[Si](C)(C)c2ccccc2Cl)c1F [Example 15] | 3.48 | 100 | 76 | 90 | 95 | 88 | – | – | –
5 | Cn1cc(C(=O)N(C[Si](C)(C)c2ccccc2Cl)C2CC2)c(C(F)F)n1 [Example 17] | 3.73 | 95 | – | 83 | 94 | – | 94% | 98 | –
6 | Cc1nn(C)c(F)c1C(=O)N(C[Si](C)(C)c1ccccc1Cl)C1CC1 [Example 19] | 3.60 | 100 | – | 100 | 100 | – | 100% | 99 | 100
7 | CCc1nn(C)c(F)c1C(=O)N(C[Si](C)(C)c1ccccc1Cl)C1CC1 [Example 20] | 4.03 | 100 | – | 92 | 100 | – | 100% | 90 | –
8 | Cc1nc(C(F)F)c(C(=O)N(C[Si](C)(C)c2ccccc2Cl)C2CC2)s1 [Example 21] | 4.32 | 100 | – | 100 | 95 | – | 100% | – | –
9 | Cc1nn(C)c(F)c1C(=O)N(C[Si](C)(C)c1cccc(Cl)c1)C1CC1 [Example 27] | 3.67 | 100 | – | 100 | 94 | – | 100% | 100 | 98
10 | CCc1nn(C)c(F)c1C(=O)N(C[Si](C)(C)c1cccc(Cl)c1)C1CC1 [Example 28] | 4.08 | 100 | – | 100 | 100 | – | 100% | 88 | –
11 | Cn1cc(C(=O)N(C[Si](C)(C)c2cccc(Cl)c2)C2CC2)c(C(F)F)n1 [Example 30] | 3.80 | 100 | – | 100 | 95 | – | 100% | – | –
12 | Cc1nc(C(F)F)c(C(=O)N(C[Si](C)(C)c2cccc(Cl)c2)C2CC2)s1 [Example 32] | 4.32 | 95 | – | 100 | – | – | 100% | – | –
13 | Cc1nn(C)c(F)c1C(=O)N(C[Si](C)(C)c1ccc(Cl)cc1Cl)C1CC1 [Example 39] | 4.30 | 100 | – | 100 | 94 | – | 94% | 100 | –
14 | Cc1cc(C(=O)N(C[Si](C)(C)c2ccc(Cl)cc2Cl)C2CC2)c(C)o1 [Example 40] | 5.46 | 95 | – | 100 | – | – | – | – | –
15 | Cn1cc(C(=O)N(C[Si](C)(C)c2ccc(Cl)cc2Cl)C2CC2)c(C(F)F)n1 [Example 41] | 4.41 | 100 | – | 100 | 100 | – | 95% | 100 | 98
16 | CCc1nn(C)c(F)c1C(=O)N(C[Si](C)(C)c1ccc(Cl)cc1Cl)C1CC1 [Example 42] | 4.78 | 100 | – | 100 | 100 | – | 100% | 99 | 100
17 | Cc1nn(C)c(F)c1C(=O)N(C[Si](C)(C)c1cc(Cl)cc(Cl)c1)C1CC1 [Example 48] | 4.34 | 100 | – | – | 100 | – | 100% | – | –
18 | CCc1nn(C)c(F)c1C(=O)N(C[Si](C)(C)c1cc(Cl)cc(Cl)c1)C1CC1 [Example 49] | 4.78 | 100 | – | 100 | 94 | – | 94% | 96 | –
19 | Cn1cc(C(=O)N(C[Si](C)(C)c2cc(Cl)cc(Cl)c2)C2CC2)c(C(F)F)n1 [Example 51] | 4.41 | 100 | – | 100 | 95 | – | 80% and 95% | – | –
20 | Cn1nc(C(F)F)c(C(=O)N(C[Si](C)(C)Cc2ccccc2)C2CC2)c1F [Example 55] | 4.03 | 100 | 99 | 90 | 100 | 100 | 100% | 100 | 100
21 | Cn1nc(C(F)F)c(C(=O)N(C[Si](C)(C)c2ccc3ccccc3c2)C2CC2)c1F [Example 74] | 4.36 | 100 | 100 | – | 100 | 100 | – | – | –
22 | Cn1nc(C(F)F)c(C(=O)N(C[Si](C)(C)c2ccsc2)C2CC2)c1Cl [Example 75] | 3.71 | 100 | 100 | – | 94 | 100 | – | – | –
23 | Cn1nc(C(F)F)c(C(=O)N(C[Si](C)(C)c2ccsc2)C2CC2)c1F [Example 76] | 3.55 | 100 | 100 | – | 94 | 100 | – | – | –
